From patent US20250066326A1, “BCL6 DEGRADERS AND USES THEREOF” (Dana-Farber Cancer Institute, Inc., priority 2021, published 2025)

Columns and labels:
BCL6 [1] = target: T1, BCL6 (Homo sapiens, UniProt P41182); test: BCL6 degradation immunoblot in VAL cells; format: cell-based
T1 construct: endogenous in cells; host or cells: VAL cells
Procedure: (§1) Inclusive of Examples 8-14, VAL cells were seeded in 6-well plates at 1×10^6 cells/well and treated with indicated concentration and time point for the indicated compounds. Total protein was extracted from cells using the RIPA buffer (Abcam) supplemented with the Halt Protease Inhibitor Cocktail (Millipore-Sigma). Samples were loaded to Invitrogen Bolt Bis -Tris Plus gels (ThermoFisher Scientific) and transferred to Invitrolon PVDF membranes (ThermoFisher Scientific) using the Invitrogen Bolt wet-gel Transfer Device. Immunodetection was performed with standard techniques. The following primary and secondary antibodies were used: anti-BCL6, β-actin, H3 (Cell Signaling Technology), and IRDye secondary antibodies at the concentration recommended by the manufacturer.
VAL cells were treated with compounds at serial concentrations of 0.1 μM, 1.0 μM, and 10 μM for 4 hours.
VAL cells were treated with 1 at serial concentrations of 0.001 μM, 0.010 μM, 0.100 μM, 1.0 μM, and 10 μM for 4 hours.
VAL cells were treated with 5 at serial concentrations of 0.001 μM, 0.010 μM, 0.100 μM, 1.0 μM, and 10 μM for 4 hours.
VAL cells were treated with 1 at 0.1 μM for 1, 2, 4, 8, and 24 hours.
VAL cells were treated with 6 at serial concentrations of 0.1 μM, 0.3 μM, 1.0 μM, 3.0 μM and 10 μM for 4 hours.

BCL6 [2] = target: T1, BCL6; test: BCL6 degradation immunoblot in DB cells; format: cell-based; conditions: tested at 0.1, 1.0, 10 μM for 4 hours, compared to BI-3812 and BI-3802
Procedure: as §1
DB cells were treated with compounds at serial concentrations of 0.1 μM, 1.0 μM, and 10 μM for 4 hours.

[3] = tested at 0.001, 0.010, 0.100, 1.0, 10 μM for 4 hours
[4] = tested at 0.1, 1.0, 10 μM for 4 hours, compared to BI-3812 and BI-3802

Compound | time in which BCL6 is degraded (immunoblot) (BCL6 [1]; 0.1 μM (100 nM), time points 1, 2, 4, 8, 24 hours) | concentration at which compound degrades BCL6 (immunoblot) (BCL6 [1]; [3]) [nM] | concentration at which compound degrades BCL6 (immunoblot) (BCL6 [1]; [4]) [nM] | concentration at which compound degrades BCL6 (immunoblot) (BCL6 [2]) [nM] | concentration at which compound degrades BCL6 (immunoblot) (BCL6 [1]; tested at 0.1, 0.3, 1.0, 3.0, 10 μM for 4 hours) [nM]
CNC(=O)COc1cc2cc(Nc3nc(N4CCC(C(=O)NCCCCCCCCNc5cccc6c5C(=O)N(C5CCC(=O)NC5=O)C6=O)CC4)ncc3Cl)cc(OC)c2n(C)c1=O (centres unmarked) [compound 1, 1-(5-chloro-4-((8-methoxy-1-methyl-3-(2-(methylamino)-2-oxoethoxy)-2-oxo-1,2-dihydroquinolin-6-yl)amino)pyrimidin-2-yl)-N-(8-((2-(2,6-dioxopiperidin-3-yl)-1,3-dioxoisoindolin-4-yl)amino)octyl)piperidine-4-carboxamide] | less than 1 hour | 1.0 | 100 |  | 
CNC(=O)COc1cc2cc(Nc3nc(N4CCC(C(=O)NCCCCNc5cccc6c5C(=O)N(C5CCC(=O)NC5=O)C6=O)CC4)ncc3Cl)cc(OC)c2n(C)c1=O (centres unmarked) [compound 3, 1-(5-chloro-4-((8-methoxy-1-methyl-3-(2-(methylamino)-2-oxoethoxy)-2-oxo-1,2-dihydroquinolin-6-yl)amino)pyrimidin-2-v1)-N-(4-((2-(2,6-dioxopiperidin-3-yl)-1,3-dioxoisoindolin-4-yl)amino)butyl)piperidine-4-carboxamide] |  |  | 100 | 100 | 
CNC(=O)COc1cc2cc(Nc3nc(N4CCC(C(=O)NCCOCCNc5cccc6c5C(=O)N(C5CCC(=O)NC5=O)C6=O)CC4)ncc3Cl)cc(OC)c2n(C)c1=O (centres unmarked) [compound 4, 1-(5-chloro-4-((8-methoxy-1-methyl-3-(2-(methylamino)-2-oxoethoxy)-2-oxo-1,2-dihydroquinolin-6-yl)amino)pyrimidin-2-vl)-N-(2-(2-((2-(2,6-dioxopiperidin-3-yl)-1,3-dioxoisoindolin-4-yl)amino)ethoxy)ethyl)piperidine-4-carboxamide] |  |  | 100 | 1000 | 
CNC(=O)COc1cc2cc(Nc3nc(N4CCC(NC(=O)CCCCCCCCCCCNc5cccc6c5C(=O)N(C5CCC(=O)NC5=O)C6=O)CC4)ncc3Cl)cc(OC)c2n(C)c1=O (centres unmarked) [compound 5, N-(1-(5-chloro-4-((8-methoxy-1-methyl-3-(2-(methylamino)-2-oxoethoxy)-2-oxo-1,2-dihydroquinolin-6-yl)amino)pyrimidin-2-yl)piperidin-4-yl)-12-((2-(2,6-dioxopiperidin-3-yl)-1,3-dioxoisoindolin-4-yl)amino)dodecanamide] |  | 10 | 100 | 1000 | 
CNC(=O)COc1cc2cc(Nc3nc(N4CCC(C(=O)NCCCCCCNC(=O)COc5cccc6c5C(=O)N(C5CCC(=O)NC5=O)C6=O)CC4)ncc3Cl)cc(OC)c2n(C)c1=O (centres unmarked) [compound 6, 1-(5-chloro-4-((8-methoxy-1-methyl-3-(2-(methylamino)-2-oxoethoxy)-2-oxo-1,2-dihydroquinolin-6-yl)amino)pyrimidin-2-vl)-N-(6-(2-((2-(2,6-dioxopiperidin-3-yl)-1,3-dioxoisoindolin-4-yl)oxy)acetamido)hexyl)piperidine-4-carboxamide] |  |  |  |  | 300
